Laboratory results taken from publication PMC8617031, “Development of a BCL-xL and BCL-2 dual degrader with improved anti-leukemic activity,” (Nature Communications, 2021).
“And” between values parts separate entries of the source, which are not always exact repeats. Identical values can stand only once. Like-named read-outs stand apart in the source and are kept apart here.

Key:
BCL-xL = biological target: T1, BCL-xL (Homo sapiens, UniProt Q07817); test: BCL-xL degradation by immunoblot in Kasumi-1 cells; format: cell-based; conditions: Fig. 7b; for BCL-xL level, bar graph (0 = 100): two replicate columns
T1 construct: endogenous in cells
Procedure: Tubulin was used as an equal loading control. […] For the viability assays, the data are presented as mean ± s.d. from three replicate cell cultures in a representative experiment. Similar results were also observed in two additional independent experiments. d Representative immunoblot analyses of Kasumi-1 cells 16 h after treatment as indicated. […] Data are representative of two independent experiments. The dotted line represents the value from DMSO-treated cells. Source data are provided as a Source data file.
Cells were collected, washed once with ice-cold phosphate-buffered saline, pH 7.2 (PBS, cat. no. 20012027; Thermo Fisher Scientific) and lysed in RIPA lysis buffer (Cat. No. BP-115DG, Boston Bio Products, Ashland, MA, USA) supplemented with protease and phosphatase inhibitor cocktails (Cat. No. PPC1010, Sigma-Aldrich, St. Louis, MO, USA) through sonication. The samples were centrifuged at 14,000 r.p.m. for 5 min and the supernatants were transferred into a new tube. The protein concentration in the supernatants was determined using the Pierce BCA protein Assay kit (cat. no. 23225, Thermo Fisher Scientific). The protein concentration was normalized, and the samples were reduced in 4× Laemmli’s SDS-sample buffer (cat. no. BP-110R, Boston Bio Products) and denatured at 95 °C for 5 min. An equal amount of protein samples (20–40 μg per lane) were resolved using precast 4–20% Tris-glycine gels (Mini-PROTEAN TGX, cat. no. 456–1094, Bio-Rad), and resolved proteins were transferred onto 0.2-µm pore size polyvinylidene difluoride (PVDF) blotting membranes (cat. no. LC2002, Thermo Fisher Scientific) using mini trans-blot electrophoretic transfer cell (Bio-Rad). The membranes were blocked with non-fat dry milk (5% wt/vol) in 1× Tris-buffered saline-Tween-20 (TBST, cat. no. J77500, Affymetrix) for 1 h at room temperature, and were subsequently probed with primary antibodies at a predetermined optimal concentration in non-fat dry milk (5% wt/vol in TBST) overnight at 4 °C. The membranes were washed three times (5 min each) in TBST and then incubated with horse radish peroxidase (HRP)-conjugated secondary antibodies for 1 h at room temperature. Following sufficient washing with TBST, the membranes were exposed with chemiluminescent HRP substrate (cat. no. WBKLS0500, MilliporeSigma), and the signal was detected using the ChemiDoc MP Imaging System (Bio-Rad) and quantified using the ImageJ (v1.53a) software from NIH.

[1] = Viability (MTS) of Hela cells; format: cell-based, human; conditions: human, Hela cells; for viability at 72 h, 0.00137174 uM: MTS absorbance 490, Conc 0.00137174 uM; for viability at 72 h, 0.00411523 uM: MTS absorbance 490, Conc 0.00411523 uM; for viability at 72 h, 0.037037 uM: MTS absorbance 490, Conc 0.037037 uM; for viability at 72 h, 0.111111 uM: MTS absorbance 490, Conc 0.111111 uM; for viability at 72 h, 0.333333 uM: MTS absorbance 490, Conc 0.333333 uM; for viability at 72 h, 1 uM: MTS absorbance 490, Conc 1 uM; for viability at 72 h, 3 uM: MTS absorbance 490, Conc 3 uM
Procedure: Suspension cells were treated 30 min after seeding, whereas adherent cells were allowed to adhere overnight and were then treated. Compound treatments were prepared in complete cell culture medium and 100 µl of 2× treatment-containing medium were added to each well. Complete cell culture medium without treatment was added in control wells, and wells containing medium without cells served as background. The outer wells of the 96-well plate were not used for treatment and were filled with 250 µl of PBS to reduce evaporation of medium from inner wells. Each compound and/or combination was tested at nine different concentrations with three replicates. The cell viability was measured after 72 h by tetrazolium-based MTS assay. MTS reagent (2 mg ml^–1 stock; cat. no. G1111, Promega) was freshly supplemented with phenazine methosulfate (PMS, 0.92 mg ml^–1 stock, cat. no. P9625, Sigma-Aldrich) in 20:1 ratio, and 20 µl of this mixture was added to each control and treatment well. The cells were incubated for 4 h at 37 °C and 5% CO2, and then the absorbance was recorded at 490 nm using Biotek’s Synergy Neo2 multimode plate reader (Biotek). The average absorbance value of background wells was subtracted from absorbance value of each control and treatment well, and percent cell viability ((At/A0) × 100)) was determined in each treatment well, where At is the absorbance value of the treatment well and A0 is the average absorbance value of control wells after background subtraction. The data were expressed as average percentage cell viability and fitted in non-linear regression curves using GraphPad Prism 7 (GraphPad Software, La Jolla, CA, USA).

[2] = Viability (MTS) of 293T cells; format: cell-based, human; conditions: human
Method in brief: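 Adherent cells treated after overnight attachment, nine concentrations in triplicate. After 72 h, MTS/PMS added and incubated 4 h at 37 °C before absorbance at 490 nm. Background-subtracted viability expressed as percent of untreated controls and fitted by non-linear regression.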

[3] = read-out: cell viability normalised to control wells (mean of three replicates)
[4] = read-out: cell viability normalised to control wells (single replicate)
[5] = 293T cell viability, MTS absorbance 490 as percent of untreated control, mean of three wells, mean of 3 wells, normalised to own plate
[6] = 293T cell viability, MTS absorbance 490 as percent of untreated control, single replicate well, replicate well, normalised to own plate
[7] = 293T cell viability, MTS absorbance 490 as percent of untreated control, single replicate well, 3 uM, replicate well, normalised to own plate

T1 sequence (Q07817 whole entry): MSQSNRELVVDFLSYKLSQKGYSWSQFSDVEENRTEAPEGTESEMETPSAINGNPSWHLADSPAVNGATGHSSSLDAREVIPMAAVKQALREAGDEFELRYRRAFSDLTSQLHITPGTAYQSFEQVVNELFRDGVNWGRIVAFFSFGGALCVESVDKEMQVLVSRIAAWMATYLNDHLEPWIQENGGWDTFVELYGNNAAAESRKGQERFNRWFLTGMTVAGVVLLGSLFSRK

Row | Compound | BCL-xL level, bar graph (0 = 100) (BCL-xL; concentration 0.01) | BCL-xL level, bar graph (0 = 100) (BCL-xL; concentration 0.03) | BCL-xL level, bar graph (0 = 100) (BCL-xL; concentration 0.1) | BCL-xL level, bar graph (0 = 100) (BCL-xL; concentration 0.3) | BCL-xL level, bar graph (0 = 100) (BCL-xL; concentration 1) | viability at 72 h, 0.00137174 uM [1, 3] [%] | viability at 72 h, 0.00137174 uM [1, 4] [%] | viability at 72 h, 0.00411523 uM [1, 3] [%] | viability at 72 h, 0.00411523 uM [1, 4] [%] | viability at 72 h, 0.037037 uM [1, 3] [%] | viability at 72 h, 0.037037 uM [1, 4] [%] | viability at 72 h, 0.111111 uM [1, 3] [%] | viability at 72 h, 0.333333 uM [1, 3] [%] | viability at 72 h, 0.333333 uM [1, 4] [%] | viability at 72 h, 1 uM [1, 3] [%] | viability at 72 h, 1 uM [1, 4] [%] | viability at 72 h, 3 uM [1, 3] [%] | viability at 72 h, 3 uM [1, 4] [%] | viability at 72 h, 0.00137174 µM [2] [%] | viability at 72 h, 0.00411523 µM [2] [%] | further results
1 | Cc1ncsc1-c1ccc([C@H](C)NC(=O)[C@@H]2C[C@@H](O)CN2C(=O)[C@@H](NC(=O)CCCCCCC(=O)N2CCN(C[C@]3(C)CCC(c4ccc(Cl)cc4)=C(CN4CCN(c5ccc(C(=O)NS(=O)(=O)c6ccc(N[C@H](CCN7CCOCC7)CSc7ccccc7)c(S(=O)(=O)C(F)(F)F)c6)cc5)CC4)C3)CC2)C(C)(C)C)cc1 [753b] | 38 and 35 | 15 and 18 | 8 and 6 | 7 and 5 | 6 and 5 |  |  |  |  |  |  |  |  |  |  |  |  |  |  |  | BCL-xL degradation in Kasumi-1 cells (in words) (BCL-xL; Kasumi-1 cells, 16 h, compared with DT2216): more potent BCL-xL degradation
2 | CC1(C)CCC(c2ccc(Cl)cc2)=C(CN2CCN(c3ccc(C(=O)NS(=O)(=O)c4ccc(N[C@H](CCN5CCOCC5)CSc5ccccc5)c(S(=O)(=O)C(F)(F)F)c4)cc3)CC2)C1 [ABT263, navitoclax] |  |  |  |  |  | 108 | 115 | 99.8 | 106 | 97 | 103 | 89.9 | 80.4 | 80.9 | 81 | 76.8 | 80.1 | 83.1 | 96.2 | 94.4 | viability at 72 h, 0.037037 µM ([2]; 293T cell viability, MTS absorbance 490 as percent of untreated control, mean of three wells, 0.037037 uM, mean of 3 wells, normalised to own plate): 107%; viability at 72 h, 0.111111 µM ([2]; 293T cell viability, MTS absorbance 490 as percent of untreated control, mean of three wells, 0.111111 uM, mean of 3 wells, normalised to own plate): 113%; viability at 72 h, 0.333333 µM [2, 5]: 103%; viability at 72 h, 1 µM [2, 5]: 98.5%; viability at 72 h, 3 µM ([2]; 293T cell viability, MTS absorbance 490 as percent of untreated control, mean of three wells, 3 uM, mean of 3 wells, normalised to own plate): 61.1%; viability at 72 h, 0.333333 µM [2, 6]: 94.3%; viability at 72 h, 1 µM [2, 6]: 93.3%; viability at 72 h, 3 µM [2, 7]: 60.7%
3 | Cc1ncsc1-c1ccc([C@H](C)NC(=O)[C@@H]2C[C@@H](O)CN2C(=O)[C@@H](NC(=O)CCCCCC(=O)N2CCN(CC[C@H](CSc3ccccc3)Nc3ccc(S(=O)(=O)NC(=O)c4ccc(N5CCN(CC6=C(c7ccc(Cl)cc7)CCC(C)(C)C6)CC5)cc4)cc3S(=O)(=O)C(F)(F)F)CC2)C(C)(C)C)cc1 [DT2216] | 86 and 92 | 59 and 63 | 38 and 33 | 22 and 25 | 11 and 12 | 87.9 | 92.3 | 90.6 | 96.4 | 88.1 | 89.4 | 89.7 | 96.4 | 102 | 82.9 | 80.4 | 82.1 | 78.4 | 106 | 104 | viability at 72 h, 0.111111 uM [1, 4]: 92.2%; viability at 72 h, 0.037037 µM [2]: 106%; viability at 72 h, 0.111111 µM [2]: 110%; viability at 72 h, 3 µM [2]: 90.6%; viability at 72 h, 0.037037 µM ([2]; 293T cell viability, MTS absorbance 490 as percent of untreated control, single replicate well, 0.037037 uM, replicate well, normalised to own plate): 105%; viability at 72 h, 0.111111 µM ([2]; 293T cell viability, MTS absorbance 490 as percent of untreated control, single replicate well, 0.111111 uM, replicate well, normalised to own plate): 109%; viability at 72 h, 3 µM [2, 7]: 89.4%
